Laboratory results reported in patent publication US11064704B2, “Natural product formulations with improved residual insect repellent/deterrent activity” (University of Mississippi, priority 2016, dated 2021).

Key:
[1] = tested on: Anopheles quadrimaculatus mosquitoes; experiment: in vitro A&K (Ali and Khan) repellent bioassay; format: in vivo; settings: compared with DEET
Text: The A&K (Ali and Khan) bioassay system is based on the concept that the mosquitoes are attracted to warm temperatures, and this system uses warm temperature to serve as stimulus for landing and feeding. The details of the A&K bioassay systems are given in Ali et al. (2017).
In summary, this in vitro system consisted of a 30×30×30 cm collapsible aluminum cage (Model 1450B, BioQuip Products, 2321 Gladwick Street, Rancho Dominguez, Calif. 90220, USA) with metal screens. On one panel of the cage, metal screen was replaced with a clear acrylic transparent sheet. […] The blood box had three sides covered with acrylic sheet while the front side was open to insert the feeding device. […] The sliding door served to contain the females inside the cage when the feeding device was pulled out for loading the treatment. This door was slid open when the feeding device was pushed in during the bioassay to expose the females to the treatment.
The feeding device had one 3×4 cm rectangular reservoir that contained the feeding solution. The feeding device was connected to the water circulator. The reservoir of the feeding device with feeding solution was covered with a chemical treated collagen sheet. To observe the landing and feeding of female mosquitoes, feeding solution in the reservoir was heated to match the human body temperature using a water circulator which was set at 37° C. The feeding solution had 3-4° C. higher temperature than the solid platform, and this increased temperature of the feeding solution became a better source of attraction and preference for the mosquitoes than the other parts of the feeding device.
The rectangular reservoir of the feeding device was filled with the CPDA 1+ATP solution having a few drops of green fluorescent traceable water-soluble dye to serve as a feeding source. A test was started when the 3×4 cm marked areas of collagen were treated with the desired chemical in a volume of 50 μL/[…]. The treated collagen sheet was then secured on the reservoir using a thin layer of high vacuum grease (Dow Corning Corporation, Midland, Mich. 48686). The feeding device was then pushed into the blood box and the sliding door was opened to expose females to the treatment.
Stock solutions were made in ethanol. All the dilutions were made in EtOH and applied in a volume of 50 μL covering […] of the collagen sheet. Minimum effective dosage (MED) values in this in vitro bioassay were determined using a method described by Katritzky et al. (2010).
The cage contained 200±10, 8-18 day old female mosquitoes. The number of mosquitoes landing and biting were recorded visually for 1 minute. Three or four cages were used at a time, and one treatment was evaluated in a single cage. The minimum dose at which 2 or less mosquitoes (i.e. less than or equal to 1% of 200 females in the cage) started feeding in 1 minute was the minimum effective dose (“MED”). Continuous exposure of the mosquitoes in the cage can result in reduced landing and biting, therefore, 3-4 cages were used and only one replication was completed for each chemical in a single cage. To ensure accuracy of the treatment, rectangular areas of (3×4 cm (12 cm^2) or 7.5×4 cm (30 cm^2) were marked on the collagen that matched the measurement of the rectangular liquid reservoirs. Treatments were applied in a volume of 50 μL (12 cm^2 area) or 107 μL (30 cm^2 area). Treated collagen sheets were secured on a feeding reservoir containing CPDA-1+ATP solution using a thin layer of grease (Dow Corning Corp, Midland, Mich.). The feeding device was pushed inside the blood box and the sliding door was […] to expose the females to the treatment.
To ensure the normal activity (≥10% landing), control treatment was repeated after every 5 replications, and the bioassay was stopped if the response was less than the control. The data is presented as MED values with the mean percentage biting (±SEM) in parenthesis. […]

An. quadrimaculatus = experiment: in vitro Klun and Debboun (K&D) biting deterrent bioassay; format: in vivo, Anopheles quadrimaculatus
Description: Experiments were conducted by using a six-celled in vitro Klun and Debboun (K&D) module bioassay system developed by Klun et al. (2005) for quantitative evaluation of biting deterrence. Briefly, the assay system consists of a six well reservoir with each of the 3×4 cm wells containing 6 mL of blood or feeding solution. As described by Ali et al. (2012), a feeding solution consisting of CPDA-1 and ATP was used instead of blood. Green fluorescent tracer dye (www.blacklightworld.com) was used to determine the feeding by the females. Carrot seed essential oil was initially tested to determine the biting deterrent activity. […] Essential oil and carotol were further tested against Ae. aegypti and An. quadrimaculatus in this bioassay. Treatments of carrot seed essential oil at 10 μg/cm^2 and carotol were tested at 10 and 5 μg/cm^2, whereas DEET (97% N,N-diethyl-meta-toluamide) (Sigma Aldrich, St. Louis, Mo.) at 25 nmol/cm^2 was used as positive control. All the treatments were freshly prepared in molecular biology grade 100% ethanol (Fisher Scientific Chemical Co. Fairlawn, N.J.) at the time of bioassay.
The temperature of the solution in the reservoirs was maintained at 37° C. by continuously passing warm water through the reservoir using a circulatory bath. The reservoirs were covered with a layer of collagen membrane (Devro, Sandy Run, S.C.). The test compounds were randomly applied to six 4×5 cm areas of organdy cloth and positioned over the membrane-covered CPDA-1+ATP solution with a Teflon® separator placed between the treated cloth and the six-celled module to prevent the contamination of the module. […] The number of mosquitoes biting through organdy treatments in each cell was recorded after a 3 minute exposure, and mosquitoes were prodded back into the cells to check the actual feeding. […] Proportion not biting (PNB) was calculated using the procedure described by Ali et al. (2012).

## CC1=CC[C@]2(C)CC[C@@H](C(C)C)[C@]2(O)CC1 [carotol]
[1]
  repellent activity: comparable to DEET
An. quadrimaculatus; 25 nmol/cm^2
  proportion not biting (PNB): 0.72
An. quadrimaculatus; 10 μg/cm^2
  proportion not biting (PNB): 0.78
An. quadrimaculatus; compared with DEET
  biting deterrent activity: comparable to DEET
